This is an account of results in patent US20230165873A1, “Methods of Use for Single Molecule Compounds Providing Multi-Target Inhibition to Treat Covid 19” (priority 2020, published 2023).

Assay [1] has as its target PI3K delta (Homo sapiens, UniProt O00329). As to the kind of experiment: PI3K delta in vitro inhibition. It counts as biochemical. As for the experimental part:
(§1) The kinase or bromodomain inhibitory activity of a compound of the invention can be determined by routine methods known to the skilled artisan without undue experimentation, or by procuring relevant analysis by a commercial vendor offering such services. […] In vivo, PI3K inhibition can be determined from target tissue biopsies by standard tissue processing in which cells are disrupted and Western Blot analysis is performed to determine the presence or absence of pAKT (substrate of PI3K) relative to a control sample. PI3K inhibition assays and BTK inhibition assays are known in the art and can be procured commercially through vendors such as Reaction Biology (Malvern, PA). The activity of a compound of the invention as an inhibitor of a bromodomain-containing protein, such as a BET protein, including BRD2, BRD3, BRD4, and/or BRDT, or an isoform or mutant thereof, may be determined in vitro, in vivo, or in a cell line. In vitro assays include assays that determine inhibition of bromodomain-containing proteins. Alternatively, inhibitor binding may be determined by running a competition experiment where a provided compound is incubated with a bromodomain-containing protein, such as a BET protein bound to known ligands, labeled or unlabeled. In vitro bromodomain inhibition assays can be performed using Alpha Screen Technology (Perkin Elmer Life and Analytical Sciences, Shelton, CT). In vivo bromodomain inhibition can be determined indirectly by evaluating the amount of a protein whose gene transcription is influenced or controlled by the bromodomain protein, for example, MYCN protein transcription is controlled by BRD4 (J.E. Delmore et al., Cell 2011, 146, 904-917; A. Puissant, Cancer Discov. 2013, 3, 308-323).
(§2) IC50 inhibition data against the indicated targets were determined for compounds of the invention using standard in vitro assays (Tables 8 and 9).

In assay [2] the target is T1, BRD4-1 (Homo sapiens, UniProt O60885).
T1 construct: BRD4-1
As to the kind of experiment: BRD4-1 in vitro inhibition. Type of assay: binding. As for the experimental part:
as §1

Assay [3] deals with T2, BRD4-2 (Homo sapiens, UniProt O60885).
T2 construct: BRD4-2
As to the kind of experiment: BRD4-2 in vitro inhibition. It counts as binding. As to the method:
as §1

In assay [4] the target is PI3K gamma (Homo sapiens, UniProt P48736). As to the kind of experiment: PI3K gamma in vitro inhibition. It counts as biochemical. As for the experimental part: as §1, §2
Sequence of PI3K gamma (P48736 whole entry): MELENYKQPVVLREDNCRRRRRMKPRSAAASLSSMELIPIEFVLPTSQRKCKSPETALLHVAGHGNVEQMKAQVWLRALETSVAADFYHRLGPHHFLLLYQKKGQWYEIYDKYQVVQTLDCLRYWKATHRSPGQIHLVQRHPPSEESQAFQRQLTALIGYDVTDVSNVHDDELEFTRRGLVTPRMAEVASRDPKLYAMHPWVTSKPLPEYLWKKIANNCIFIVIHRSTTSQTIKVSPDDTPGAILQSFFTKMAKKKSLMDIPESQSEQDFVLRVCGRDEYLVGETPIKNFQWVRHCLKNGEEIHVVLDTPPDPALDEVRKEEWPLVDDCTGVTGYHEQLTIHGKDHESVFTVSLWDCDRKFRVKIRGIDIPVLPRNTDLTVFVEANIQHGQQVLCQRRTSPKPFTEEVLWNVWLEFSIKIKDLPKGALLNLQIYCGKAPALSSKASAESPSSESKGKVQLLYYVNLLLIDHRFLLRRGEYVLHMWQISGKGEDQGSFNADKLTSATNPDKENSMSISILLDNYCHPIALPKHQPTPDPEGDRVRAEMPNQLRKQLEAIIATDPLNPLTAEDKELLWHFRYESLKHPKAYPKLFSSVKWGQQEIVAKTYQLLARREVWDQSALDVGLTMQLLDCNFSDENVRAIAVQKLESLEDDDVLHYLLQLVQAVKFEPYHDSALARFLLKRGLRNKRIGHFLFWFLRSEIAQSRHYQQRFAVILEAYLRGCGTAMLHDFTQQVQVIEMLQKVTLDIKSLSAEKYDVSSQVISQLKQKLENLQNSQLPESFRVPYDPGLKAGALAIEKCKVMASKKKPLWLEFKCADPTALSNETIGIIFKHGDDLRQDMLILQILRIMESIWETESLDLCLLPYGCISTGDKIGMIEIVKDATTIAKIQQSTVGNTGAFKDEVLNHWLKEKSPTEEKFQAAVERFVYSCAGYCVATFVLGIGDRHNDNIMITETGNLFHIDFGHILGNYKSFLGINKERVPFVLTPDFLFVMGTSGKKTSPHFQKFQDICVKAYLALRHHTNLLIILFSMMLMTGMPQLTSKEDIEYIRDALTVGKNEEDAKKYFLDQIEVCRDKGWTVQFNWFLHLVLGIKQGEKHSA
The target of assay [5] is PI3K alpha (Homo sapiens, UniProt P42336). Description: PI3K alpha in vitro inhibition. Type of assay: biochemical. As for the experimental part: as §1
Sequence of PI3K alpha (P42336 whole entry): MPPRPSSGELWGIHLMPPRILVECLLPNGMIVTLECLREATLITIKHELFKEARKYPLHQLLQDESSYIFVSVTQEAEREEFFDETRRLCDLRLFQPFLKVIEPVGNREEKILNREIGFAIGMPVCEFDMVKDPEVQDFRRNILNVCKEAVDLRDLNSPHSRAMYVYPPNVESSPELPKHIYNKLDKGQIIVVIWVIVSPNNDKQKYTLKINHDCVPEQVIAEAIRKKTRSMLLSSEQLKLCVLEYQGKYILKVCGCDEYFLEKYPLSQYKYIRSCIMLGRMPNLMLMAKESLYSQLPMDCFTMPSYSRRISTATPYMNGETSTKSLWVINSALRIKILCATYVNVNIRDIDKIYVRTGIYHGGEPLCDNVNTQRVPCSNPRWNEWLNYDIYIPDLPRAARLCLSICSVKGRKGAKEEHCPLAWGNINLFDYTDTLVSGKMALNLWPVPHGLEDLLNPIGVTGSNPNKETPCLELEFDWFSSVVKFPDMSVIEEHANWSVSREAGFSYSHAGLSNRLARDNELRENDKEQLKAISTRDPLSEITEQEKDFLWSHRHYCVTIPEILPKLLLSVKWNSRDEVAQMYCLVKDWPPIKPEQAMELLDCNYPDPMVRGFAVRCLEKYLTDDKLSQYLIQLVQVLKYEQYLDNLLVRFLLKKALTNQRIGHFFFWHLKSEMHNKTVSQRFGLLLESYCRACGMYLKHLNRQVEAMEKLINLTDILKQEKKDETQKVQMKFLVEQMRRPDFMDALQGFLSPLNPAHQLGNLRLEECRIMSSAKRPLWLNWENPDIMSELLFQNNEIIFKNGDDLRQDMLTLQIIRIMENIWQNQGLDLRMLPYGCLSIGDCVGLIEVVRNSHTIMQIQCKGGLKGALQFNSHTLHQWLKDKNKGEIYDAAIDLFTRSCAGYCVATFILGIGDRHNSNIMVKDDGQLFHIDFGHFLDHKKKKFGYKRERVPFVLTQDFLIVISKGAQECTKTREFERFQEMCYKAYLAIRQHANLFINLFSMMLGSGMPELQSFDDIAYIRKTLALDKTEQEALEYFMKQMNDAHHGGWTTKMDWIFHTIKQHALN
Sequence of PI3K alpha (P27986 whole entry partner): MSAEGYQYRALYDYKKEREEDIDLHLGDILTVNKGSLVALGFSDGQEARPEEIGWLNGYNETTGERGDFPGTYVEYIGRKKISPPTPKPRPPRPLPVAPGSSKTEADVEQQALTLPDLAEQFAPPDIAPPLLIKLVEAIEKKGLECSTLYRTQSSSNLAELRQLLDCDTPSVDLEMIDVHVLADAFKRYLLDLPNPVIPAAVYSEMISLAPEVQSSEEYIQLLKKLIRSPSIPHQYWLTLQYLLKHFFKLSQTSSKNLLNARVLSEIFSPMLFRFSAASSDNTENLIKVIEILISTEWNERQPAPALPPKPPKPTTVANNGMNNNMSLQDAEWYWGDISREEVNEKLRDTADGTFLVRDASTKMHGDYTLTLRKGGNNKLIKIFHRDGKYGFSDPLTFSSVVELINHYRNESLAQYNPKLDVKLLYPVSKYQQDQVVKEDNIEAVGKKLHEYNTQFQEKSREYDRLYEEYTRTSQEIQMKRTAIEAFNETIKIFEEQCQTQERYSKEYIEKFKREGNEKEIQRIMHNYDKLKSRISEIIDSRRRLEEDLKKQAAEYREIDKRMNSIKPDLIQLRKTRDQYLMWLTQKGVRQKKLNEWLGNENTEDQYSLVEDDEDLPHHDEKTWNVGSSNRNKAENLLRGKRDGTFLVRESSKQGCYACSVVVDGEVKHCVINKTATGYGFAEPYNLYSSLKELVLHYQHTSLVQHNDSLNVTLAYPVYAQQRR
The target in assay [6] is CDK4 cyclinD1 (Homo sapiens, UniProt P11802). As to the kind of experiment: CDK4 cyclinD1 in vitro inhibition. Type of assay: biochemical. As for the experimental part:
as §1, §2

Assay [7] has as its target mTOR (Homo sapiens, UniProt P42345). Description: mTOR in vitro inhibition. It counts as biochemical. As for the experimental part:
as §1, §2

Assay [8] has as its target CDK6 cyclinD1 (Homo sapiens, UniProt Q00534). As to the kind of experiment: CDK6 cyclinD1 in vitro inhibition. Type of assay: biochemical. As for the experimental part:
as §1, §2

The target of assay [9] is PI3K beta (Homo sapiens, UniProt P42338). Description: PI3K beta in vitro inhibition. It counts as biochemical. As for the experimental part:
as §1

The target in assay [10] is BTK C481S (Homo sapiens, UniProt Q06187, C481S). As to the kind of experiment: BTK C481S in vitro inhibition. Type of assay: biochemical. As for the experimental part:
as §1, §2

Assay [11] has as its target BTK (Homo sapiens, UniProt Q06187). As to the kind of experiment: BTK in vitro inhibition. It counts as biochemical. As for the experimental part: as §1, §2
The target in assay [12] is Syk (Homo sapiens, UniProt P43405). As to the kind of experiment: Syk in vitro inhibition. Type of assay: biochemical. As to the method: as §1, §2
Setting [13] is: read-out: IC50 inhibition PI3K gamma.

Where two headings read alike, the source gives them in different places.

Sequence of CDK6 cyclinD1 (Q00534 whole entry): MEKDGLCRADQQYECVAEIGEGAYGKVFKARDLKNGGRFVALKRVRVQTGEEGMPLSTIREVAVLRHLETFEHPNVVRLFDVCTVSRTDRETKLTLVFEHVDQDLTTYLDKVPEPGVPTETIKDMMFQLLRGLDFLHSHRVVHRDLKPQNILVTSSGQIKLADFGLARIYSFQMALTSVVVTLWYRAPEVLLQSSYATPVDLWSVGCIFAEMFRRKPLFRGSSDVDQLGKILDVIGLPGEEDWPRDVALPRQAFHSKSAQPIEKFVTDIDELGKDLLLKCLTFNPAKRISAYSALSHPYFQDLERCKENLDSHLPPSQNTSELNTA
Sequence of CDK6 cyclinD1 (P24385 whole entry partner): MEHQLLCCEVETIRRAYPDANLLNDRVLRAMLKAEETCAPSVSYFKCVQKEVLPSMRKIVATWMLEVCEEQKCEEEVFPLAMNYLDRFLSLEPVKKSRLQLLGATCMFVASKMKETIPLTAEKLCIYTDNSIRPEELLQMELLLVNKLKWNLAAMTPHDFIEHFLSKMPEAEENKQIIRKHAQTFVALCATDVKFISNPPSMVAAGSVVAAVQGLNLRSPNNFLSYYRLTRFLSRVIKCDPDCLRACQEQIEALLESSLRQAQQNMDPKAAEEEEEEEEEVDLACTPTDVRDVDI
Sequence of PI3K delta (O00329 whole entry): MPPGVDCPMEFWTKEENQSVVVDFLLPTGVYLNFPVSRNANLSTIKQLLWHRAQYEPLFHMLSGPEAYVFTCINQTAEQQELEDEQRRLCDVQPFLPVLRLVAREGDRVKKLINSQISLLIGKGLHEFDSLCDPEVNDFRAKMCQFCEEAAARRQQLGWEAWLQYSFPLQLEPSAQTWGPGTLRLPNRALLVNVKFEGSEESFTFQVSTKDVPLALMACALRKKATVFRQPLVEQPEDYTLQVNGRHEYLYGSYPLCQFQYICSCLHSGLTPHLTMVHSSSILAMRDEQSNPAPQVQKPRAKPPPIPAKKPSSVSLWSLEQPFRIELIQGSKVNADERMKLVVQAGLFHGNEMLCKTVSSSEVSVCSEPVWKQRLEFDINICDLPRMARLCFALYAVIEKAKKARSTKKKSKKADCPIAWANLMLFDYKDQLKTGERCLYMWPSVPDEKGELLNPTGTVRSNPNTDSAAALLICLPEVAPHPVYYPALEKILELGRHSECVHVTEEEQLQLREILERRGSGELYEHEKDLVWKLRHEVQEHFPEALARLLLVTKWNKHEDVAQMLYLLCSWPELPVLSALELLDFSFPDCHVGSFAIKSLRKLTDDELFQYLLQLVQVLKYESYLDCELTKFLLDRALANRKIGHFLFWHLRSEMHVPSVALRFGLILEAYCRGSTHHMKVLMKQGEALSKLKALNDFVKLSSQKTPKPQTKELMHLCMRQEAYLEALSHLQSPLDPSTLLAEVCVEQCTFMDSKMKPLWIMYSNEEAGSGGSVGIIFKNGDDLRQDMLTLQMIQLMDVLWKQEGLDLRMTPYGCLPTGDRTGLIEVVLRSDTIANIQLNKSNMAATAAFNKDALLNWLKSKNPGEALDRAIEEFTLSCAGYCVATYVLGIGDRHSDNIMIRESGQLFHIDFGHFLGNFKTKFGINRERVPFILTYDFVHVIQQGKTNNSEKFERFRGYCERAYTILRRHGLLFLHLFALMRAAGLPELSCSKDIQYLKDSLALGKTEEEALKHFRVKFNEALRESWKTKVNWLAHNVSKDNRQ
Sequence of PI3K delta (P27986 whole entry partner): as the sequence (P27986 whole entry partner) above
Sequence of CDK4 cyclinD1 (P11802 whole entry): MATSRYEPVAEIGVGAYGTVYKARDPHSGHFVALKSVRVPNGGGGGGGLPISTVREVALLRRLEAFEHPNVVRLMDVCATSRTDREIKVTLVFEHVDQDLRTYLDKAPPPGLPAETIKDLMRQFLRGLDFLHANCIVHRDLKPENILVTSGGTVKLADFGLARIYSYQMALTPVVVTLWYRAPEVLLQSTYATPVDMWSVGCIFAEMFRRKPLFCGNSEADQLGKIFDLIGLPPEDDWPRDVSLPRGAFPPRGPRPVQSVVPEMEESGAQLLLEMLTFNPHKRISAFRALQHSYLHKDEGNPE
Sequence of CDK4 cyclinD1 (P24385 whole entry partner): as the sequence (P24385 whole entry partner) above

One may read the IC50 as the concentration that inhibits the measured activity by half. `O=c1cc(N2CCOCC2)oc2c(C#Cc3ccsc3)csc12` [Compound 5-1]: the IC50 in assay [1] was less than 0.5 µM; in [2], 10 to 45 µM; in assay [3], 10 to 45 µM; in assay [4] (setting [13]) it was less than 0.5 µM; in [5] it was less than 0.5 µM.
As to `COc1ccc(C#Cc2csc3c(=O)cc(N4CCOCC4)oc23)cc1` [Compound 5-2], the IC50 was less than 0.5 µM in assay [1]; 0.5 to 1 µM in assay [2]; 1 to 10 µM in assay [3]; 0.5 to 1 µM in assay [4] (IC50 inhibition PI3K gamma); less than 0.5 µM in assay [5].
Turning to `COc1cc(C#Cc2csc3c(=O)cc(N4CCOCC4)oc23)cc(OC)c1` [Compound 5-3], the IC50 in assay [1] was less than 0.5 µM; in assay [2], less than 0.5 µM; in [3] it was 0.5 to 1 µM; in assay [4] (setting [13]), 1 to 10 µM; in assay [5], 0.5 to 1 µM.
Take `O=c1cc(N2CCOCC2)oc2c(C#Cc3ccccc3)csc12` [Compound 5-4]: the IC50 in [1] is less than 0.5 µM; in assay [2], 1 to 10 µM; in assay [3], 10 to 45 µM; in assay [4] (setting [13]), less than 0.5 µM; in assay [5], less than 0.5 µM.
As for `CN(C)C(=O)c1cc2cnc(Nc3ccc(-c4csc5c(=O)cc(N6CCOCC6)oc45)cc3)nc2n1C1CCCC1` [Compound 6], the IC50 in assay [6] was less than 0.5 µM; in assay [7], 1 to 10 µM; in assay [8], less than 0.5 µM; in assay [4] (setting [13]) it was 1 to 10 µM.
Regarding `CN(C)C(=O)c1cc2cnc(Nc3ccc(-c4csc5c(=O)cc(N6CCOCC6)oc45)nc3)nc2n1C1CCCC1` [Compound 7], the IC50 in assay [9] was 10 to 45 µM; in [6], less than 0.5 µM; in assay [7], 1 to 10 µM; in [8], less than 0.5 µM; in assay [2], 10 to 45 µM; in [3], 1 to 10 µM. Moreover, the IC50 in assay [4] (setting [13]) was in the range of 10 to 45 µM; in assay [5], 1 to 10 µM.
Take `Cc1nc2c(F)cc(-c3nc(Nc4ccc(-c5csc6c(=O)cc(N7CCOCC7)oc56)cc4)ncc3F)cc2n1C(C)C` [Compound 25-1]: the IC50 in assay [1] is 1 to 10 µM; in assay [6], less than 0.5 µM; in assay [8], less than 0.5 µM; in assay [2] it was greater than 45 µM; in assay [3], greater than 45 µM; in [4] (setting [13]), greater than 45 µM. For the same compound, in [5], the IC50 was 10 to 45 µM.
On to `CC(=O)c1c(C)c2cnc(Nc3ccc(-c4csc5c(=O)cc(N6CCOCC6)oc45)cc3)nc2n(C2CCCC2)c1=O` [Compound 25-2], for which the IC50 in [1] is less than 0.5 µM; in [6], less than 0.5 µM; in assay [8], less than 0.5 µM; in assay [2] it was less than 0.5 µM; in [3], less than 0.5 µM; in [4] (setting [13]) it was 1 to 10 µM. In addition, in assay [5], the IC50 is less than 0.5 µM.
For the compound `CC(C)(C)OC(=O)Nc1cc2cnc(Nc3ccc(-c4csc5c(=O)cc(N6CCOCC6)oc45)cc3)nc2n1C1CCCC1` [Compound 25-3], the concentration for half-maximal inhibition (IC50) in assay [1] is less than 0.5 µM; in assay [6], less than 0.5 µM; in assay [8], less than 0.5 µM; in assay [2], less than 0.5 µM; in assay [3] it was 0.5 to 1 µM; in assay [4] (setting [13]), 1 to 10 µM. Besides, the IC50 in [5] was less than 0.5 µM.
As for `C=CS(=O)(=O)N(CCS(=O)(=O)N(c1cc(-c2csc3c(=O)cc(N4CCOCC4)oc23)ccc1OC)S(=O)(=O)C=C)c1cc(-c2csc3c(=O)cc(N4CCOCC4)oc23)ccc1OC` [Compound 51], the IC50 in [9] was less than 0.5 µM; in assay [2], 1 to 10 µM; in [3] it was less than 0.5 µM; in assay [10] it was 10 to 45 µM; in assay [11], 1 to 10 µM; in assay [4] (setting [13]), 0.5 to 1 µM. In assay [5], this compound came in with an IC50 of less than 0.5 µM.
As to `Cc1nn(-c2ccnc(Nc3ccc(-c4csc5c(=O)cc(N6CCOCC6)oc45)cc3)n2)cc1CN1CC(O)C1` [Compound 52], the IC50 is less than 0.5 µM in assay [12]; 1 to 10 µM in assay [1]; 10 to 45 µM in assay [6]; less than 0.5 µM in assay [8]; greater than 45 µM in assay [2]; greater than 45 µM in [3]. Moreover, the IC50 fell in the range of 10 to 45 µM in [4] (setting [13]) and 0.5 to 1 µM in assay [5].
Take `Cc1nn(-c2ccnc(Nc3ccc(-c4csc5c(=O)cc(N6CCNCC6)oc45)cc3)n2)cc1CN1CC(O)C1` [Compound 53]: the IC50 is less than 0.5 µM in [12]; 1 to 10 µM in assay [1]; 1 to 10 µM in assay [6]; less than 0.5 µM in [8]; 10 to 45 µM in [2]; greater than 45 µM in [3]. Also, the IC50 in assay [4] (setting [13]) is greater than 45 µM; in assay [5], 1 to 10 µM.
As for `Cc1nn(-c2ccnc(Nc3ccc(-c4csc5c(=O)cc(N6CCOCC6)oc45)cc3)n2)cc1CN1CCC1` [Compound 54], the IC50 in assay [12] is less than 0.5 µM; in [1] it was less than 0.5 µM; in [6], greater than 45 µM; in assay [8], greater than 45 µM; in assay [2], 1 to 10 µM; in [3], 1 to 10 µM. In addition, the results for the IC50 in assay [4] (setting [13]) and in assay [5] were 1 to 10 µM and less than 0.5 µM, respectively.
As for `Cc1nn(-c2ccnc(Nc3ccc(-c4csc5c(=O)cc(N6CCNCC6)oc45)cc3)n2)cc1CN1CCC1` [Compound 55], the IC50 in assay [12] was less than 0.5 µM; in assay [1], 1 to 10 µM; in [6], 1 to 10 µM; in [8] it was less than 0.5 µM; in [2], 1 to 10 µM; in [3] it was greater than 45 µM. The half-inhibitory concentration (IC50) in assay [4] (setting [13]) and in [5] was greater than 45 µM throughout.
In the case of `Cc1nn(-c2ccnc(Nc3ccc(-c4csc5c(=O)cc(N6CCN(C(=O)OC(C)(C)C)CC6)oc45)cc3)n2)cc1CN1CC(O)C1` [Compound 56], the IC50 in assay [12] is less than 0.5 µM; in assay [1], 1 to 10 µM; in assay [6], 1 to 10 µM; in assay [8] it was 0.5 to 1 µM; in [2], 1 to 10 µM; in assay [3] it was greater than 45 µM. Further, the IC50 in assay [4] (setting [13]) is 10 to 45 µM; in assay [5] it was 1 to 10 µM.
For `Cc1nn(-c2ccnc(Nc3ccc(-c4csc5c(=O)cc(N6CCOCC6)oc45)cc3)n2)cc1CN(C)C` [Compound 57], the IC50 is less than 0.5 µM in assay [12]; 0.5 to 1 µM in assay [1]; less than 0.5 µM in [6]; less than 0.5 µM in assay [8]; 1 to 10 µM in assay [2]; 1 to 10 µM in assay [3]. For the same compound, the IC50 in assay [4] (setting [13]) lay within 10 to 45 µM; in assay [5], 0.5 to 1 µM.
On to `Cc1nn(-c2ccnc(Nc3ccc(-c4csc5c(=O)cc(N6CCOCC6)oc45)cc3)n2)cc1CN1CCOCC1` [Compound 58], for which the IC50 in assay [12] is greater than 45 µM; in [1], less than 0.5 µM; in assay [6], greater than 45 µM; in assay [8], greater than 45 µM; in assay [2] it was 1 to 10 µM; in assay [3] it was 1 to 10 µM. Moreover, the IC50 in assay [4] (setting [13]) was in the range of 10 to 45 µM; in [5] it was 0.5 to 1 µM.
As to `Cc1nn(-c2ccnc(Nc3ccc(-c4csc5c(=O)cc(N6CCOCC6)oc45)cc3)n2)cc1CN(C)CCO` [Compound 59], the IC50 in assay [12] lay within 0.5 to 1 µM; in [1] it was 1 to 10 µM; in assay [6] it was 1 to 10 µM; in [8], 1 to 10 µM; in assay [2] it was 1 to 10 µM; in assay [3], 1 to 10 µM. The values for the half-maximal inhibitory concentration (IC50) in assay [4] (setting [13]) and in assay [5] were 10 to 45 µM and 1 to 10 µM, respectively.
